The target in one test is Mu-type opioid receptor (Rattus norvegicus, UniProt P33535). The test can be described thus: Binding affinity against mu-opioid receptor by using [3H]DAGO as radioligand in rat brain. The format is tissue-based.
The species named for a further test is Cavia porcellus. Nature of the test: In vitro bioactivity on electrically induced smooth muscle contraction of guinea pig ileum by GPI assay. Type of test: functional.
Test [1] deals with Delta-type opioid receptor (Rattus norvegicus, UniProt P33533). Nature of the test: Binding affinity against delta-opioid receptor by using [3H]DADLE as radioligand in rat brain. Type of test: tissue-based.
Test [2] relates to Mus musculus. The test can be described thus: In vivo antinociceptive effect in mice by PBQ writhing test upon subcutaneous administration: Range is (0.39-0.59). The format is functional. The note with it: sc. On the technique in general: An intraperitoneal irritant provokes the stretching counted in writhing tests.
Test [3] concerns Mus musculus. Nature of the test: In vivo antinociceptive effect in mice by PBQ writhing test upon subcutaneous administration; Range is (0.52-0.741). Type of test: functional. Particulars: sc.
Test [4] has as its system Mus musculus. Nature of the test: In vivo antinociceptive effect in mice by PBQ writhing test upon subcutaneous administration; Range is (1.64-3.24). The format is functional. Particulars: sc.
Test [5] concerns Mus musculus. Nature of the test: In vivo antinociceptive effect in mice by PBQ writhing test upon subcutaneous administration; Range is (0.88-1.56). Type of test: functional. Particulars: sc.

As usually defined, the Ki is the dissociation constant of the complex between target and ligand, obtained from inhibition or displacement. The low end stands for a stronger hold on the target, the high end for a looser hold on the target. Usually IC50 stands for the concentration that gives 50% inhibition. A higher IC50 goes with a need for much substance. A word on the ED50: it is the dose that gives a 50% effect, or the effect in half of the subjects.

Where a SMILES comes first, the peptide text is derived from it.

Delta-type opioid receptor, sequence (P33533 whole entry): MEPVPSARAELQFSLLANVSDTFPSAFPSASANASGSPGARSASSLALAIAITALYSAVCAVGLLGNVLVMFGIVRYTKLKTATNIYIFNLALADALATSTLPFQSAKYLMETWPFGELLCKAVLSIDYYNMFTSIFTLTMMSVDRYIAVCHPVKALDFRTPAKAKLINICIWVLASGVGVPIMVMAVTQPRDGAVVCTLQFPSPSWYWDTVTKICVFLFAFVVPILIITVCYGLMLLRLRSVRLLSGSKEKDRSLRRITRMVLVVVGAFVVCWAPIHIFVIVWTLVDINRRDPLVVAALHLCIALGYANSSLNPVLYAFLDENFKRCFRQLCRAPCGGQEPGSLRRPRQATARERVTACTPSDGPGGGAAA
Mu-type opioid receptor, sequence (P33535 whole entry): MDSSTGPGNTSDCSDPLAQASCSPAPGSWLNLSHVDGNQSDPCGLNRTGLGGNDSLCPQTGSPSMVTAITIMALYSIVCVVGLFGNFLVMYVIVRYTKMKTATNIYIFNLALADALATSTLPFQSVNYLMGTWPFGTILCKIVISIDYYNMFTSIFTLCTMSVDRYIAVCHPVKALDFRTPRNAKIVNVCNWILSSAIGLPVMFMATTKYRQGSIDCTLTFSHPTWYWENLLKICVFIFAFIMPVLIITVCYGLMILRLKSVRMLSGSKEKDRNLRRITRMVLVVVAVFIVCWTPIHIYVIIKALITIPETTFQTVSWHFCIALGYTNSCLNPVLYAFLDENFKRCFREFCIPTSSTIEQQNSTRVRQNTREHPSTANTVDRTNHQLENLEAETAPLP

With `C[N+](C)(C)CC[C@H](NC(=O)[C@H](Cc1ccccc1)NC(=O)[C@H](CCCN=C(N)N)NC(=O)[C@@H](N)Cc1ccc(O)cc1)C(N)=O`, the values for the Ki (at Mu-type opioid receptor; in test [1]) were 7.52 nM and 5860 nM, respectively. Also, inhibition in the test filed under Cavia porcellus was half-maximal at 125 nM (IC50).

For the compound `C[N+](C)(C)CC[C@H](NC(=O)[C@H](Cc1ccccc1)NC(=O)[C@H](CCCNC(=N)N)NC(=O)[C@H](Cc1ccc(O)cc1)[N+](C)(C)C)C(N)=O`, the inhibition constant (Ki) at Mu-type opioid receptor was 1300 nM; in test [1], over 100000 nM. In the test listed under Cavia porcellus, this compound had an IC50 of 3120 nM.

For the compound `C[N+](C)(C)[C@@H](Cc1ccc(O)cc1)C(=O)N[C@H](CCCN=C(N)N)C(=O)N[C@@H](Cc1ccccc1)C(=O)N[C@@H](CCCN)C(N)=O`, the Ki on Mu-type opioid receptor was 1920 nM; in test [1], over 100000 nM. This compound also had a 50% inhibitory concentration (IC50) in the test filed under Cavia porcellus of over 100000 nM.

Consider `NCCCC[C@H](NC(=O)[C@H](Cc1ccccc1)NC(=O)[C@@H](CCCN=C(N)N)NC(=O)[C@@H](N)Cc1ccc(O)cc1)C(N)=O`, for which the Ki at Mu-type opioid receptor was 0.38 nM; in test [1], 2360 nM. The same compound showed an ED50 in the test on Mus musculus [2] of 0.47 mg/kg. This compound showed an IC50 in the test filed under Cavia porcellus of 50.6 nM.

In the case of `C[N+](C)(C)[C@@H](Cc1ccc(O)cc1)C(=O)N[C@H](CCCN=C(N)N)C(=O)N[C@@H](Cc1ccccc1)C(=O)N[C@@H](CCCCN)C(N)=O`, the figures for the inhibition constant Ki (on Mu-type opioid receptor; in test [1]) were 207 nM and over 100000 nM, respectively. In addition, half-maximal inhibition in the test listed under Cavia porcellus (IC50) was put at 2470 nM.

In the case of `NC(=O)[C@H](CCNC(=O)[C@H](Cc1ccccc1)NC(=O)[C@H](CCCN=C(N)N)NC(=O)[C@@H](N)Cc1ccc(O)cc1)NC(=O)[C@H](Cc1ccccc1)NC(=O)[C@H](CCCN=C(N)N)NC(=O)[C@@H](N)Cc1ccc(O)cc1` (HELM PEPTIDE1{Y.R.F.[Dab].[am]}|PEPTIDE2{Y.R.F}$PEPTIDE1,PEPTIDE2,4:R3-3:R2$$$V2.0), the inhibitory constant (Ki) was found to be 0.51 nM at Mu-type opioid receptor and 497 nM in test [1]. In the test listed under Cavia porcellus, inhibition was half-maximal at 14.2 nM (IC50). This compound also displayed an ED50 with Mus musculus [3] of 0.61 mg/kg.

Regarding `C[N+](C)(C)CCC[C@H](NC(=O)[C@H](Cc1ccccc1)NC(=O)[C@@H](CCCN=C(N)N)NC(=O)[C@@H](N)Cc1ccc(O)cc1)C(N)=O`, it took a dose of 2.3 mg/kg to reach the 50% effect level with Mus musculus [4] (ED50). Moreover, the Ki on Mu-type opioid receptor amounted to 2.35 nM; in test [1], 450 nM. The compound further yielded an IC50 in the test listed under Cavia porcellus of 130 nM.

`C[N+](C)(C)CCCC[C@H](NC(=O)[C@H](Cc1ccccc1)NC(=O)[C@@H](CCCNC(=N)N)NC(=O)[C@@H](N)Cc1ccc(O)cc1)C(N)=O`: the Ki on Mu-type opioid receptor turned out to be 1.12 nM; in test [1] it was 3550 nM. Moreover, the IC50 in the test filed under Cavia porcellus was 91.9 nM. In the test with Mus musculus [5], it took a dose of 1.18 mg/kg to reach the 50% effect level (ED50).

The values are drawn from ChEMBL document CHEMBL1151084, “Synthesis and biological properties of quaternized N-methylation analogs of D-Arg-2-dermorphin tetrapeptide” (Bioorg Med Chem Lett, 1994).
